Test results from patent US20150218523A1, “MANUFACTURE OF VASCULAR SMOOTH MUSCLE CELLS AND THE USE” (Agency for Science, Technology and Research, priority 2014, published 2015).

Key:
[1] = test system: NCSMCs derived from hESC (H9); settings: NCSMCs at 1% oxygen, drug 48 hr (minocycline 5 μM, losartan 5 μM), then labeled Aβ for 1 hr
Method: NCSMCs and BVSMCs were routinely cultured at 21% oxygen and 1% oxygen to simulate normoxic and chronic hypoxic conditions, respectively. Twenty one percent O2 SMCs were seeded at 30,000 cells/well onto 96-well plate as positive controls. One percent O2 SMCs were seeded at the same density as negative controls and experimental samples for drug treatment on the same plate. The 96-well plate was incubated at 37° C. overnight at 21% O2. After cell attachment, 2 mg/ml of fluorescently labeled amyloid peptide (Aβ42-Hilyte Fluor 555 or Aβ40-Hilyte Fluor 488, Anaspec) was added to SMCs for a 1 hr uptake at 37° C. After Aβ uptake, cells were dissociated into single-cell suspension for high-throughput flow cytometry by LSRFortessa plate analyzer. Respective Z factors for NCSMC and BVSMC Aβ uptake assays were calculated based on their mean fluorescence brightness (normalized to no-uptake controls) and SDs of positive (21% O2) and negative (1% O2) controls. […] Mean fluorescence brightness signals (normalized to no-uptake control) indicated the degree of amyloid uptake.
NCSMC were treated with the following reference compounds for 48 hours at 37° C. prior to Aβ uptake. […]
The NCSMC and BVSMC cultures were scaled down to 96-well format. […] Cells were incubated with labeled Aβ40 and Aβ42 (2 mg/ml) for an hour and subsequently evaluated by high-throughput flow cytometry.

SMC subtypes = assay: SMC contraction study; format: cell-based, human; settings: angiotensin II 0.5 μM, 10 min, all SMC subtypes, n=30
Method: SMCs were preloaded with the calcium-sensitive fluorophore, Fluo-4 AM (2.5 μM; Molecular Probes) at 37° C. for an hour. Contraction was induced by treating the cells with angiotensin II (0.5 μM, Sigma). Contraction pictures and intracellular calcium flux videos of SMCs were acquired by a time-lapse microscope live cell imaging microscope (Zeiss Axiovert 200M) during 10 minutes of angiotensin II treatment. Change of cell surface area was assessed by ImageJ software.

Molecule | Effect on Aβ uptake (Aβ40 and Aβ42) over the vehicle control [1] | Reduction of cell surface area in contracting SMCs (SMC subtypes)
CCCCc1nc(Cl)c(CO)n1Cc1ccc(-c2ccccc2-c2nn[nH]n2)cc1 [losartan] | may not have any apparent effect | –
angiotensin II (DRVYIHPF; Angiotensin-2; UniProt P01019 25-32, looked up) [vasoconstrictor, an inducer of contraction (0.5 μM, Sigma)] | – | 18%-21%
